Tests used:
claudin-3 [1] = experiment: Western blot of serum claudin-3 in hemorrhagic shock model; assay type: in vivo; conditions: rat serum, 1 hour following VPA treatment; HS 1 hour group showed ~23 kDa and ~11 kDa bands
Description: An animal model of HS was used. Male Wistar-Kyoto rats (254.12±2.71 grams, Harlan, Indianapolis, Ind.) were used in the lethal model of hemorrhagic shock (Shults et al., J. Trauma. 2008; 64(3): 629-638). Each animal's estimated blood volume was calculated using the formula: [estimated blood volume (mL)=weight (g)×0.06 (mL/g)+0.77]. About 1.3 mL of blood was manually drawn at the beginning and end of hemorrhage for analysis (included in the total hemorrhage calculation). The animals were hemorrhaged (40% of their calculated total blood volume) via a femoral arterial catheter over 10 minutes, followed by a 20% blood volume venous bleed over the next 50 minutes. Bleeding was performed using Kent Scientific adjustable pumps (Kent Scientific Corporation, NJ). VPA (300 mg/kg) was administered via a femoral vein catheter after completion of hemorrhage. Blood pressure was monitored continuously during the experiment. […]
To assess whether claudin-3 is a potential biomarker, independent serum samples were taken of sham (no hemorrhage and no treatment), HS 1 hour (1 hour following hemorrhagic shock), and VPA 1 hour (1 hour following VPA treatment) from individual rats and the level of the candidate biomarker was determined by Western blot with anti-claudin-3 antibody. […]

22.7 kDa protein = experiment: SELDI-TOF MS serum protein profiling in lethal hemorrhagic shock model; assay type: in vivo; conditions: rat serum, 24 hours after VPA 300 mg/kg via femoral vein after hemorrhage; p<0.05 vs HS, n=5
Description: (§1) An animal model of HS was used. Male Wistar-Kyoto rats (254.12±2.71 grams, Harlan, Indianapolis, Ind.) were used in the lethal model of hemorrhagic shock (Shults et al., J. Trauma. 2008; 64(3): 629-638). Each animal's estimated blood volume was calculated using the formula: [estimated blood volume (mL)=weight (g)×0.06 (mL/g)+0.77]. About 1.3 mL of blood was manually drawn at the beginning and end of hemorrhage for analysis (included in the total hemorrhage calculation). The animals were hemorrhaged (40% of their calculated total blood volume) via a femoral arterial catheter over 10 minutes, followed by a 20% blood volume venous bleed over the next 50 minutes. Bleeding was performed using Kent Scientific adjustable pumps (Kent Scientific Corporation, NJ). VPA (300 mg/kg) was administered via a femoral vein catheter after completion of hemorrhage. Blood pressure was monitored continuously during the experiment. The mean arterial pressure (MAP) in animals that were subjected to hemorrhage dropped sharply after bleeding to approximately 20 mm Hg. […]
ProteinChip profiling was performed on CM10 ProteinChip arrays (Ciphergen Biosystems, Fremont Calif.), as recommended by the manufacturer. […] The arrays were then inserted into a ProteinChip (Enterprise edition) TOF-MS and read at an optimized laser setting of 2000 nJ-5000 nJ. […]

claudin-3 [2] = experiment: iTRAQ quantification of serum claudin-3 peptide in hemorrhagic shock model; assay type: in vivo; conditions: rat serum, 24 hours post-VPA treatment (300 mg/kg) vs post-hemorrhagic shock; BL to HS ratio 0.323
Description: as §1
Immunodepletion of serum abundant proteins was performed as follows. […] Column performance was monitored by sodium dodecyl sulphate-polyacrylamide gel electrophoresis (SDS-PAGE) followed by Coomassie Blue staining (BioBlue, BioRad). […]

hemorrhagic shock [3] = conditions: rats; Shults et al. 2008, Li et al. 2008, WO 2007117272; cited from earlier work
claudin-3 [4] = experiment: Western blot of intestinal claudin-3 protein in hemorrhagic shock model; assay type: in vivo; conditions: rat intestinal lysate, 1, 6 and 24 hours after VPA treatment, vs HS 1 hour; n=3
Description: as §1, with “experiment.” for “experiment. The mean arterial pressure (MAP) in animals that were subjected to hemorrhage dropped sharply after bleeding to approximately 20 mm Hg.”
Claudin-3 is a TJ protein that has important roles in establishing epithelial and endothelial barriers. To find out whether HS and VPA treatment affect claudin-3 protein in TJ of epithelial cells, protein expression was analyzed in intestinal tissue obtained from sham, HS 1 hour (1 hour after hemorrhagic shock), and VPA-treated animals (1 hour, 6 hours, and 24 hours after treatment). […]

hemorrhagic shock [5] = experiment: Survival in lethal model of hemorrhagic shock; assay type: in vivo, rat; conditions: rats, 60% blood volume hemorrhage, VPA 300 mg/kg; none of the untreated animals survived
Description: as §1, with “Hg. Blood was drawn at baseline (BL, before hemorrhage), hemorrhagic shock (HS), and 24 hours after VPA treatment from individual rats for protein biomarker screening and identification.” for “Hg.”

claudin-3 mRNA = experiment: RT-PCR of intestinal claudin-3 mRNA in hemorrhagic shock model; assay type: in vivo; conditions: rat intestine, 1, 6 and 24 hours; β-actin internal control, n=3
Description: To assess whether gene expression of claudin-3 responds to HS and VPA treatment, the mRNA expression of rat intestines among the groups of sham, HS and VPA treatment was compared at 1, 6 and 24 hours using RT-PCR methods.

CCCC(CCC)C(=O)O [VPA, Valproic acid]
serum claudin-3 by Western blot (claudin-3 [1]): no claudin-3 was detected | serum level of 22.7 kDa protein (SELDI-TOF MS peak intensity) vs HS (22.7 kDa protein): down-regulated in the VPA group sharply | ratio of VPA to HS, claudin-3 peptide iTRAQ tag intensity in serum (claudin-3 [2]): 0.425 | survival after lethal HS (literature) (hemorrhagic shock [3]): improves survival after lethal HS in rats | intestinal claudin-3 protein level by Western blot (claudin-3 [4]): significantly attenuated the HS-induced reduction of claudin-3 | survival after hemorrhagic shock (hemorrhagic shock [5]): survived | intestinal claudin-3 mRNA expression by RT-PCR (claudin-3 mRNA): did not significantly change claudin-3 mRNA expression

Source: patent US20100317047A1, “Biomarkers of Hemorrhagic Shock” (THE GENERAL HOSPITAL CORPORATION, priority 2009, published 2010)
